Measurements from publication PMC10011554, “BET inhibitor trotabresib in heavily pretreated patients with solid tumors and diffuse large B-cell lymphomas” (Nature Communications, 2023).
“And” between values parts separate entries of the source, which are not always exact repeats. Equal values may be shown once. Read-outs that look alike come from different tables or passages of the source.

How the values were obtained:
[1] = test system: FOSL1 gene expression in U-87 glioblastoma cells; design: method as in Investigator's Brochure; settings: U-87 cells, ref Investigator's Brochure; read-out: IC50, inhibition of FOSL1 gene expression; cited from earlier work
[2] = test system: COH71 TNBC PDX-derived model; design: method as in Investigator's Brochure; settings: COH71, ref Investigator's Brochure; read-out: IC50, colony formation; cited from earlier work
[3] = Biopharmaceutic and physicochemical profile
[4] = test system: BCRP or MRP2; design: method as in Investigator's Brochure; settings: BCRP or MRP2, ref Investigator's Brochure; cited from earlier work
[5] = test system: GBM3 GBM PDX; design: method as in Unpublished data from Celgene Corporation; settings: ref Unpublished data from Celgene Corporation, cited from earlier work
[6] = design: method as in Unpublished data from Celgene Corporation; settings: COH70 study, ref Unpublished data from Celgene Corporation; cited from earlier work
[7] = test system: R/R DLBCL; test: Tumor response (International Working Group criteria), PFS and OS in phase I study, part B; assay type: in vivo, human
Method: Secondary objectives were the preliminary efficacy of trotabresib in terms of clinical benefit rate (CR + PR + SD of ≥4 months’ duration), ORR (CR + PR), duration of response or SD, PFS, OS, and the PK of trotabresib. In addition, part C assessed the effects of food on the PK and the safety of trotabresib as a secondary objective. The pharmacodynamics of trotabresib were assessed as an exploratory objective.
Response was assessed using Response Evaluation Criteria in Solid Tumors (RECIST) v1.1[54] in patients with solid tumors, International Working Group criteria in patients with DLBCL[55], and Response Assessment in Neuro-Oncology (RANO) criteria[56] in patients with CNS tumors (astrocytoma and glioblastoma). For patients with BCC, the response was assessed using a combination of radiological assessment of target lesions per RECIST v1.1, digital clinical photography assessed per World Health Organization (WHO) criteria, and punch biopsies to confirm CR. PK parameters assessed included Cmax, tmax, AUC, t½, apparent clearance (CL/F), and apparent volume of distribution (Vz/F).
Bayesian logistic regression model based on dose-limiting toxicity was used to provide initial guidance for dose recommendations in the dose-escalation phase. The final decision was reached by considering the totality of safety, PK, and PD data. For binary efficacy endpoints, two-sided 95% Clopper–Pearson exact confidence intervals were provided. For time-to-event endpoints (PFS and OS), the median and 95% CI were estimated using the Kaplan–Meier method.

[8] = test system: CYP2C19; design: method as in Investigator's Brochure; settings: CYP2C19, ref Investigator's Brochure; read-out: IC50, direct inhibition; cited from earlier work
[9] = test system: U-2932 (ABC DLBCL); design: method as in Report CC-90010-Pharm-1018; settings: read-out: absolute IC50, proliferation, cited from earlier work
[10] = test system: FARAGE (GCB DLBCL); design: method as in Report CC-90010-Pharm-1018; settings: read-out: absolute IC50, proliferation, cited from earlier work
[11] = test system: BR0869f ER-PR-Her2+ PDX-derived breast cancer model; design: method as in Investigator's Brochure; settings: 7 or 14 days, ref Investigator's Brochure, read-out: mean IC50, colony formation; cited from earlier work
[12] = test system: CYP1A2, CYP2B6 and CYP3A4 mRNA; design: method as in Investigator's Brochure; settings: 0.01 to 10 µM, up to 3 days, CYP1A2, CYP2B6, CYP3A4, ref Investigator's Brochure; cited from earlier work
[13] = design: method as in Investigator's Brochure; settings: ref Investigator's Brochure, cited from earlier work
[14] = test system: CYP2D6; design: method as in Investigator's Brochure; settings: CYP2D6, ref Investigator's Brochure; read-out: IC50, direct inhibition; cited from earlier work
[15] = design: method as in Unpublished data from Celgene Corporation; settings: ref Unpublished data from Celgene Corporation, cited from earlier work
[16] = test system: OCI-LY-10 (ABC DLBCL); design: method as in Report CC-90010-Pharm-1018; settings: OCI-LY-10, Table 2, ref Report CC-90010-Pharm-1018; read-out: absolute IC50, proliferation; cited from earlier work
[17] = test system: RC-K8 (ABC DLBCL); design: method as in Report CC-90010-Pharm-1018; settings: RC-K8, Experiment 1, ref Report CC-90010-Pharm-1018; read-out: absolute IC50, proliferation; cited from earlier work
[18] = test system: human ether-à-go-go-related gene (hERG); design: method as in Investigator's Brochure; settings: ref Investigator's Brochure; cited from earlier work
[19] = test system: CYP2C8; design: method as in Investigator's Brochure; settings: CYP2C8, ref Investigator's Brochure; read-out: IC50, direct inhibition; cited from earlier work
[20] = test system: OAT1; design: method as in Investigator's Brochure; settings: OAT1, 30 µM, ref Investigator's Brochure; cited from earlier work
[21] = part B R/R DLBCL (N = 23), treated population

SMILES: Cn1cc(-c2cc(S(C)(=O)=O)ccc2OCC2CC2)c2ccccc2c1=O [trotabresib]
- IC50 [1]: 0.03 µM
- IC50 [2]: 0.18 ± 0.02 µM
- ionization [3]: non-ionizable
- Biopharmaceutics Classification System (BCS) behavior ([3]; data on file): Category II like
- transporter inhibition [4]: not an inhibitor
- TGI ([5]; GBM3, 6 mg/kg orally BID): 76%
- TGI ([5]; GBM3, 12 mg/kg orally QD): 63%
- daily dose up to which well tolerated [6]: 25 mg/kg
- reduction in target lesion size ([7]; one patient with GCB immunophenotype R/R DLBCL, after two cycles): 57%
- Median OS (95% CI) ([7]; part B DLBCL (n = 23)): 159 days and 159 (101–NE) days
- Median PFS (95% CI) ([7]; part B DLBCL (n = 23)): 54 (49–65) days
- OS range ([7]; part B DLBCL (n = 23)): 44 to 423 days
- PFS range ([7]; part B DLBCL (n = 23)): 12 to 423 days
- best response CR ([7]; part B R/R DLBCL (N = 23)): 8.7%
- best response PD ([7]; part B R/R DLBCL (N = 23)): 43.5%
- best response PR ([7]; part B R/R DLBCL (N = 23)): 4.3%
- best response SD ([7]; part B R/R DLBCL (N = 23)): 8.7%
- CBR [7, 21]: 17.4%
- ORR [7, 21]: 13.0%
- total treatment duration ([7]; part B, one patient with transformed DLBCL, ongoing at cycle 17): 1.6 years
- IC50 [8]: ≥ 13.9 µM
- IC50 ([9]; U-2932, Experiment 1, ref Report CC-90010-Pharm-1018): 0.15 µM
- IC50 ([9]; U-2932, Table 2, ref Report CC-90010-Pharm-1018): 0.167 µM
- IC50 ([10]; FARAGE, Experiment 1, ref Report CC-90010-Pharm-1018): 0.71 µM
- IC50 ([10]; Farage, Experiment 2, ref Report CC-90010-Pharm-1018): 3.35 µM
- IC50 [11]: 0.12 ± 0.01 µM
- increase in mRNA over vehicle control [12]: < 2 fold
- accumulation after repeat dosing ([13]; rats, toxicokinetics): no accumulation in rats
- clearance in male vs female rats [13]: approximately 2 fold
- IC50 [14]: ≥ 13.9 µM
- weight loss ([15]; GBM15, 15 mg/kg/dose group): -6.6%
- weight loss ([15]; GBM15, 25 mg/kg/dose group): -3.7%
- weight loss ([15]; GBM15, 37.5 mg/kg/dose group): -3.1%
- IC50 [16]: 0.418 µM
- IC50 [17]: 0.13 µM
- IC50 [18]: 24.3 µM
- IC50 [19]: ≥ 13.9 µM
- inhibition of mediated transport [20]: 45.6%
